One experiment has as its system rat kidney. In words: Ischemic and reperfusion damage to rat kidney. The note with it: additive to organ preservation solutions.
For experiment [1], the system named is isolated heart cells (myocytes). Put plainly: Inhibition of reoxygenation damage in isolated heart cells (LD-leakage). In kind it is cell-based, rat. To be noted: for prevention of ischemic and reperfusion damage to isolated rat heart cells: additive to organ preservation solutions. On the procedure:
Hearts were collected from 2 and 6 days old rats and the ventricles were dissected free, placed in Hanks balanced salt solution without Ca^2+ and Mg^2+ but with 0.35 g/l sodium-carbonate and cut in small pieces. The cells were dispersed in the same solution but supplemented with collagenase solution (type 1, 0.8 mg/ml) at 37° C. for 10 minutes and centrifuged, 160 xg for 5 minutes. Subsequently, 5 serial 20 minutes digestions were performed. The cells from the initial digestion were discarded. Centrifugation was made after each 20 minutes period and the collage nase solution was changed to Ham's F 10 culture medium, supplemented with 10% fetal bovine serum (FBS), glutamine 2 mM, penicillin 50 IU/ml and streptomycin 50 μg/ml. A modified method to enrich the isolation of myocytes, were used, including replaiting the cells twice for 30 and 90 min, respectively. The myocytes were plated on 35 mm plastic culture dishes at a density of approximately 9×10^5 cells/ml (1.8×10^6 cells/dish). The cells were kept in culture for 6 days at 37° C. and 5% CO2 under aerobic conditions in a Forma Scientific carbon dioxide incubator, 5% CO2. During this period the cells reached confluence and were beating spontaneously at an approximate frequency of 20-40 beats/min. Each culture dish contained 0.9±0.2 mg protein. The supplemented F10-medium was changed each day. The antioxidant compound II was added to the culture medium in ethanol, reaching a final concentration of 0.1% ethanol. The final concentration of compound II in the culture medium was 0.01, 0.1, 1.0 or 5.0 μmol/l. Before starting the experiment the medium above the myocytes were removed and changed to fresh F10-medium supplemented with glutamine, which was made hypoxic by argon bubbling for 1 hour before addition to the cells. The culture plates were transferred to specially designed air tight thermostated chambers. The experiment lasted for 300 min including 60 min hypoxia, when nitrogen (95% N2, 5% CO2) was slowly gassed above the cells, followed by 240 min reoxygenation (95% O2, 5% CO2). Cell viability was determined by leakage of LD into the medium, and was analyzed after various times 1, 30, 60, 90, 120, 180, 240 and 300 min.

For experiment [2], the system named is isolated perfused rat heart. Put plainly: Postischemic recovery of the isolated perfused (Langendorff) heart after six hours cold ischemia. To be noted: for prevention of ischemic and reperfusion damage to isolated perfused rat heart: additive to organ preservation solutions. The method, then:
Experiments were designed to investigate the effect on the myocardial recovery after six hours cold ischemia when an antioxidative agent compound II, was added to a crystalloid cardioplegic solution, such as Plegisol (Abbott). The retrogradely perfused (Langendorff) isolated rat heart with an intra-ventricular balloon was used. The hearts were single flushed perfused (10 ml, 4° C.) with either plain Plegisol or Plegisol supplemented with 1 μmol/l of compound II. The hearts were then stored for 6 hours in the respective solution at 4° C. In a third group hearts were single flush perfused with Plegisol without storage of the hems.

The next experiment deals with lipid peroxidation. Put plainly: Ascorbate/Fe^2+ -dependent lipid peroxidation. In kind it is biochemical. To be noted: ascorbate/Fe^2+ model, in vitro. The source says:
The indenoindole compounds are efficient as flee-radical scavengers or antioxidants. An assay system measuring the concentration of the compounds of formulas I and II required to inhibit lipid peroxidation by 50% (IC50) was used. The assay system, ascorbate/Fe^2+ -dependent lipid peroxidation, was the same system used in EP-A 409 410 and detailed information about the system is given in said patent specification.

Experiment [3] deals with oxidation of lipoproteins in human plasma (rabbit smooth muscle cells). In words: Oxidation of lipoproteins in human plasma in the presence of rabbit smooth muscle cells. The class given is cell-based.
For another experiment, the system named is rat liver. In words: Ischemic and reperfusion damage to rat liver. To be noted: additive to organ preservation solutions.
The subject of the next experiment is rat bone marrow. Put plainly: Ischemic and reperfusion damage to rat bone marrow. To be noted: additive to organ preservation solutions.
Experiment [4] concerns lipid peroxidation in renal tissue. Put plainly: In vitro hypoxia and reoxygenation of kidney tissue (TBARS formation). The class given is cell-based. The note with it: pH 7.4; rat kidney slices, 37° C., pH 7.40, 40 min hypoxia (argon), 30 min reoxygenation; read-out: pIC50, -log of the concentration needed to reduce TBARS formation by 50% of the corresponding vehicle value (converted). On the procedure:
Lipid peroxidation was also tested in renal tissue. Samples were obtained from anesthetized rats, cut into 2 mm slices and put into 50 ml Erlenmeyer flasks containing 40 mmol 1^-1 Hepes buffer (pH 7.40) 37° C. (10-100 mg tissue per 4 ml buffer). The tissue was made hypoxic for 20 min by bubbling a fine stream of argon gas through the buffer. After that an antioxidant or the corresponding vehicle was added to the buffer and the tissue was kept under argon for an additional period of 20 min. The sample was then reoxygenated by vigourous bubbling of the buffer with 95.5% O2 :CO2. After 30 min reoxygenation the iron chelator deferoxamine mesylate (Ciba Geigy AG, Basel, Switzerland) was added (final concentration 45 μmol 1^-1). The sample was homogenized on ice, quickly frozen in dry-ice and alcohol and stored at -70° C. After thawing the formation of 2-thiobarbituric acid-reactive material (TBARS) was determined (Svensson et al Scand J Clin Invest 1993:53). The potencies of the antioxidants (pIC50 i.e. -log of the concentration (antioxidant) needed to reduce TBARS formation by 50% of the corresponding vehicle value) was for compound I: 6.8 and for compound II: 6.8.

In experiment [5] the test system is oxidation of lipoproteins in human plasma (mouse peritoneal macrophages). Put plainly: Oxidation of lipoproteins in human plasma in the presence of mouse peritoneal macrophages. In kind it is cell-based, human plasma; mouse cells.
The test system of experiment [6] is lipid peroxidation in renal tissue. Put plainly: Ex vivo hypoxia and reoxygenation of renal tissue after oral administration to mice. The class given is in vivo, mouse. The note with it: for time after administration up till which lipid peroxidation was abolished: oral dose of 50 mg/kg; for inhibition of lipid peroxidation in renal tissue subjected to ex vivo hypoxia and reoxygenation: oral dose of 50 mg/kg (dose for compounds I and II).

Entries after “also recorded” stand apart in the source; their conditions may differ. Some results are limits rather than exact numbers.

Turning to `COc1cc(C)c2c(c1)C1c3ccccc3CC1N2` (stereo not drawn) [Compound II, 9-Methoxy-7-methyl-iso-THII], the “prevention of ischemic and reperfusion damage to rat kidney” value with rat kidney is “prevent ischemic and reperfusion damage”. In experiment [1] (Rattus norvegicus, 1 μmol/l, 60 min hypoxia, 240 min reoxygenation, read-out: reduction of the damage (LD-leakage)), the inhibition at 1 µM was determined as 90%. Further, the IC50 in experiment [1] (Rattus norvegicus, 60 min hypoxia, 240 min reoxygenation, read-out: calculated pIC50 (-logIC50), LD-leakage (converted)) is 31.6 nM; in experiment [4], 158 nM. Further, the “prevention of ischemic and reperfusion damage to isolated rat heart cells” value in [1] is “prevent ischemic and reperfusion damage”. Also, the “postischemic LVDP compared to plain Plegisol, in words” value in [2] (Plegisol with 1 μmol/l, 6 hours at 4° C.) is reported as “significantly improved; also recorded: drastically improves the functional recovery of rat hearts”. Moreover, the “postischemic left ventricular developed pressure (LVDP)” value in experiment [2] (Plegisol with 1 μmol/l, 6 hours at 4° C., mean±SEM, plain Plegisol 57±11%, without storage 89±1%) is listed as 90±9 % of preischemic value. Moreover, the “prevention of ischemic and reperfusion damage to isolated perfused rat heart” value in experiment [2] is “prevent ischemic and reperfusion damage”. Also, the “pIC50, inhibition of ascorbate/Fe^2+ -dependent lipid peroxidation” value (shortened to “pIC50, inhibition”) in the experiment with lipid peroxidation stood at 8.2. The “prevention of oxidation of lipoproteins in human plasma” value (shortened to “prevention … in human plasma”) in experiment [3] and in experiment [5] was “prevent efficiently oxidation of lipoproteins” in each case. The “prevention of ischemic and reperfusion damage to rat liver” value with rat liver was “prevent ischemic and reperfusion damage”. Besides, the “prevention of ischemic and reperfusion damage to rat bone marrow” value with rat bone marrow is “prevent ischemic and reperfusion damage”. For the same molecule, in experiment [6], the “time after administration up till which lipid peroxidation was abolished” value is at most 6 h. In addition, the “inhibition of lipid peroxidation in renal tissue subjected to ex vivo hypoxia and reoxygenation” value (“inhibition of lipid peroxidation” below) in experiment [6] was “abolished lipid peroxidation in renal tissue”.

On to `Cc1cc(C)c2c(c1)C1(C)Cc3ccccc3C1(C)N2` (stereo not drawn) [Compound III, 4b,6,8,9b-Tetramethyl-THll, reference compound], for which the “pIC50, inhibition” value in the experiment with lipid peroxidation is 7.4. Further, the “time after administration up to which inhibitory effect on lipid peroxidation could be detected” value in experiment [6] (dose not separately printed for compound III) is recorded as “up to 30 min”. Moreover, the “inhibition of lipid peroxidation” value in experiment [6] is on record as “only weak inhibitory effect on lipid peroxidation”.

Take `Cc1c(C)c2c(c(C)c1O)CCC(C)(CCCC(C)CCCC(C)CCCC(C)C)O2` (stereo not drawn) [α-Tocopherol, reference compound]: the “pIC50, inhibition” value with lipid peroxidation stood at 5.0.

Turning to `COc1cc(C)c2c(c1)C1Cc3ccccc3C1N2` (stereo not drawn) [Compound I, 8-Methoxy-6-methyl-THII], the “prevention of ischemic and reperfusion damage to rat kidney” value in the experiment on rat kidney is “prevent ischemic and reperfusion damage”. The “prevention of ischemic and reperfusion damage to isolated rat heart cells” value in experiment [1] is “prevent ischemic and reperfusion damage”. The “prevention of ischemic and reperfusion damage to isolated perfused rat heart” value in experiment [2] is “prevent ischemic and reperfusion damage”. The “pIC50, inhibition” value in the experiment with lipid peroxidation is reported as 8.0. Besides, in experiment [3], the “prevention … in human plasma” value was “prevent efficiently oxidation of lipoproteins”. Also, the “prevention of ischemic and reperfusion damage to rat liver” value in the experiment with rat liver is “prevent ischemic and reperfusion damage”. Besides, the “prevention of ischemic and reperfusion damage to rat bone marrow” value in the experiment on rat bone marrow was “prevent ischemic and reperfusion damage”. In addition, the IC50 in [4] was 158 nM. For the same molecule, the “prevention … in human plasma” value in experiment [5] is on record as “prevent efficiently oxidation of lipoproteins”. Besides, in [6], the “time after administration up till which lipid peroxidation was abolished” value is listed as at most 6 h; the “inhibition of lipid peroxidation” value was “abolished lipid peroxidation in renal tissue”.

Source of the values: patent US5719174A, “Indenoindole compounds for use in organ preservation” (priority 1993, dated 1998).
